Measured values taken from article PMC4354951 (European journal of medicinal chemistry, 2008).
Entries after “also recorded” stand apart in the source; their conditions may differ.

Tests used:
human NPP3 = molecular target: T1, human NPP3 (Homo sapiens, UniProt O14638); experiment: Hydrolysis by NPP3; format: biochemical
T1 sequence (O14638 1-875): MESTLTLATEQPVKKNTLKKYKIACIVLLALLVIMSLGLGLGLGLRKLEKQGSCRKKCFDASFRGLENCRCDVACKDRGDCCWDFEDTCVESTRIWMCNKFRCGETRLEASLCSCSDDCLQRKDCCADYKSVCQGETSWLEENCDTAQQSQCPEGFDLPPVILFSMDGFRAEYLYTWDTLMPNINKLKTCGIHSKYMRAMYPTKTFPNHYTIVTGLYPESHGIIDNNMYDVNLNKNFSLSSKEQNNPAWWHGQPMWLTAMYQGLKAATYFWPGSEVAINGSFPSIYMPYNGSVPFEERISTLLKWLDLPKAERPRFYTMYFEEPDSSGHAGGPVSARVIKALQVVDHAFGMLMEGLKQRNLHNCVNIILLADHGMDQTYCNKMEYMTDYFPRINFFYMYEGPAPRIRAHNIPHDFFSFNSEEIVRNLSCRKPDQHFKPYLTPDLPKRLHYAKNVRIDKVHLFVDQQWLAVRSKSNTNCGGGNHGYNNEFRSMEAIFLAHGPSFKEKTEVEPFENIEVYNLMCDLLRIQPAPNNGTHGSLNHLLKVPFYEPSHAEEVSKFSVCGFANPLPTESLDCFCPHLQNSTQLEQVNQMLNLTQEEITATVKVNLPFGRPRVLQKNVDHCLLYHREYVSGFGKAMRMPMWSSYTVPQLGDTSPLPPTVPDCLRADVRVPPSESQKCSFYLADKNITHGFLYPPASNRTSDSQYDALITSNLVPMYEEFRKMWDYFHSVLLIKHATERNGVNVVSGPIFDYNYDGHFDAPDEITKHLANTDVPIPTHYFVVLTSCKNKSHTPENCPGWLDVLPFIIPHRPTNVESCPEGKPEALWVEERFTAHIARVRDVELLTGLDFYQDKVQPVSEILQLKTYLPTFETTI

human NPP1 = molecular target: T2, human NPP1 (Homo sapiens, UniProt P22413); experiment: Hydrolysis by NPP1; format: biochemical
T2 sequence (P22413 1-925): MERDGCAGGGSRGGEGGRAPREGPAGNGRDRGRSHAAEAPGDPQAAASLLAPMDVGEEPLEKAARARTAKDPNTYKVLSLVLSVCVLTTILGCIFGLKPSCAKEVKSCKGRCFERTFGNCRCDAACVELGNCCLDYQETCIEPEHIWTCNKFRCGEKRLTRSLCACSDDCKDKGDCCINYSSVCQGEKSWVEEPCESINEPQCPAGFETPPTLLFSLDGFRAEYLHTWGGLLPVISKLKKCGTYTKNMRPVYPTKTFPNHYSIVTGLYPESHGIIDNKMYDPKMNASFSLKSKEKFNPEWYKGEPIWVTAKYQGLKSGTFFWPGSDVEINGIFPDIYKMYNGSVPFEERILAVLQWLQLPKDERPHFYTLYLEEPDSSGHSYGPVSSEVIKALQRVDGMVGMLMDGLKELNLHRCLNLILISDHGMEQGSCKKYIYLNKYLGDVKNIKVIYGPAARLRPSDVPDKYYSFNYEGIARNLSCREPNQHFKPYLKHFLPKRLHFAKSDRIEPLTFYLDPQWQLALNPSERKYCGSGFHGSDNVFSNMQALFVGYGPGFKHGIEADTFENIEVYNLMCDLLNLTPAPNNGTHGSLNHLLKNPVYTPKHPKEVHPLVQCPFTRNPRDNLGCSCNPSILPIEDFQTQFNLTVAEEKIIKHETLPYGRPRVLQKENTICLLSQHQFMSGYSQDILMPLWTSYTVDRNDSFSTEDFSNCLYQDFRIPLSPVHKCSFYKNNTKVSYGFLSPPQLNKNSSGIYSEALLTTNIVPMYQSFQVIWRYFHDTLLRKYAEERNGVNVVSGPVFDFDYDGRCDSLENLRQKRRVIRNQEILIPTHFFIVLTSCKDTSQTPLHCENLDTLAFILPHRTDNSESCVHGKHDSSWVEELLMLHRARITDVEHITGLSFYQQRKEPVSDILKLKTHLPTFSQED

[1] = Chemical hydrolysis under gastric juice-like conditions; format: physicochemical
[2] = pKa and degree of ionization of phosphate/phosphonate; format: physicochemical; settings: physiological conditions, pH 7.4
turkey P2Y1 receptor = turkey P2Y1 receptor (Meleagris gallopavo, UniProt P49652); format: cell-based; settings: 1321N1 cell transfectants
human NTPDase8 = molecular target: T3, human NTPDase8 (Homo sapiens, UniProt Q5MY95); experiment: Hydrolysis by NTPDase8; format: biochemical
T3 sequence (Q5MY95 1-495): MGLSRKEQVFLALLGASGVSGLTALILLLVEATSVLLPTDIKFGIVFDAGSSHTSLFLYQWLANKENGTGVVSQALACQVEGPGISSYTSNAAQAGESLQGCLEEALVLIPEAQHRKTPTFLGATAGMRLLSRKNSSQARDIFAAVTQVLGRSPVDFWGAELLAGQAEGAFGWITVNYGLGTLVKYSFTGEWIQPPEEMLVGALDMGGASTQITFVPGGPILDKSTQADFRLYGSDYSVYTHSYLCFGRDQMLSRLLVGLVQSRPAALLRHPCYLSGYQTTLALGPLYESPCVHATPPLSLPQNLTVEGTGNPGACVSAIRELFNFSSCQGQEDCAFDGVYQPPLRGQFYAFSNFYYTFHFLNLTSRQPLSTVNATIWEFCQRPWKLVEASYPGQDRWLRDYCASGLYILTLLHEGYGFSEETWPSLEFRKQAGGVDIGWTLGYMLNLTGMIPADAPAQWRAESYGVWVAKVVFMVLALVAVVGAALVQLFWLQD

rat P2Y6 receptor = rat P2Y6 receptor (Rattus norvegicus, UniProt Q63371); experiment: Increase in [Ca2+]i in 1321N1 astrocytoma cells expressing P2Y6 receptor; format: cell-based; settings: read-out: EC50 of analogue-induced increase in [Ca2+]i, P2Y6; 1321N1 cell transfectants
human P2Y4 receptor = human P2Y4 receptor (Homo sapiens, UniProt P51582); experiment: Increase in [Ca2+]i in 1321N1 astrocytoma cells expressing P2Y4 receptor; format: cell-based; settings: read-out: EC50 of analogue-induced increase in [Ca2+]i, P2Y4; 1321N1 cell transfectants
human P2Y2 receptor = human P2Y2 receptor (Homo sapiens, UniProt P41231); experiment: Increase in [Ca2+]i in 1321N1 astrocytoma cells expressing P2Y2 receptor; format: cell-based; settings: read-out: EC50 of analogue-induced increase in [Ca2+]i, P2Y2; 1321N1 cell transfectants
human NTPDase3 = molecular target: T4, human NTPDase3 (Homo sapiens, UniProt O75355); experiment: Hydrolysis by NTPDase3; format: biochemical
T4 sequence (O75355 1-529): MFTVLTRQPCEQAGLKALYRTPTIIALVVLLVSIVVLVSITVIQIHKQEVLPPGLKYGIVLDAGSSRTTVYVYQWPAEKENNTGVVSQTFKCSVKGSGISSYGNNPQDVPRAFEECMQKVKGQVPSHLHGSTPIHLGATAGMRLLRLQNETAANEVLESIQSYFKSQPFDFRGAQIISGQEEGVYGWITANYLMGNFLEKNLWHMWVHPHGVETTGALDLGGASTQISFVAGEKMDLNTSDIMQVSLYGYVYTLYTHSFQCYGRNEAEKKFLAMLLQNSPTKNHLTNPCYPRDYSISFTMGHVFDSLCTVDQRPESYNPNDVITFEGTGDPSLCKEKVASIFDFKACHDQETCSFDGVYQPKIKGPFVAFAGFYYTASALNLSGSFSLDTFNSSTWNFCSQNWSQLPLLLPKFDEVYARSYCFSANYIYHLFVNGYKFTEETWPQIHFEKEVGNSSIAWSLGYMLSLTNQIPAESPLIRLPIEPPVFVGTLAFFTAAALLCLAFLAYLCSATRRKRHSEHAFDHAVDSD

human NTPDase1 = molecular target: T5, human NTPDase1 (Homo sapiens, UniProt P49961); experiment: Hydrolysis by NTPDase1; format: biochemical
T5 sequence (P49961 1-510): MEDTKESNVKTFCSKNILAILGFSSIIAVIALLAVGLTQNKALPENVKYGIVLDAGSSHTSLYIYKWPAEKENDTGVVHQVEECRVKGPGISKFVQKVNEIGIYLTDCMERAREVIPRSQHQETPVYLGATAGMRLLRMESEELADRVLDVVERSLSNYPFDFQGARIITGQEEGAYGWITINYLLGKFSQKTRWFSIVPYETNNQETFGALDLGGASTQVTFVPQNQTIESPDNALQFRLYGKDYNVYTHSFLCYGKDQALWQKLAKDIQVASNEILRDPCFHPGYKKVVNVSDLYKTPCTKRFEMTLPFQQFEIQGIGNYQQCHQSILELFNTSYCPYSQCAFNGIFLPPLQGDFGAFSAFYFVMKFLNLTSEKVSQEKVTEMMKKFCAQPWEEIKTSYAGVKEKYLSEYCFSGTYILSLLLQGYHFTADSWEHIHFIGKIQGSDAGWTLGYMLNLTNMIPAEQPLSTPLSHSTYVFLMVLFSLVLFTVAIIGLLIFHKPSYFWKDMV

human NTPDase2 = molecular target: T6, human NTPDase2 (Homo sapiens, UniProt Q9Y5L3); experiment: Hydrolysis by NTPDase2; format: biochemical; settings: 100 μM substrate; relative to ATP hydrolysis (100%)
T6 sequence (Q9Y5L3 1-495): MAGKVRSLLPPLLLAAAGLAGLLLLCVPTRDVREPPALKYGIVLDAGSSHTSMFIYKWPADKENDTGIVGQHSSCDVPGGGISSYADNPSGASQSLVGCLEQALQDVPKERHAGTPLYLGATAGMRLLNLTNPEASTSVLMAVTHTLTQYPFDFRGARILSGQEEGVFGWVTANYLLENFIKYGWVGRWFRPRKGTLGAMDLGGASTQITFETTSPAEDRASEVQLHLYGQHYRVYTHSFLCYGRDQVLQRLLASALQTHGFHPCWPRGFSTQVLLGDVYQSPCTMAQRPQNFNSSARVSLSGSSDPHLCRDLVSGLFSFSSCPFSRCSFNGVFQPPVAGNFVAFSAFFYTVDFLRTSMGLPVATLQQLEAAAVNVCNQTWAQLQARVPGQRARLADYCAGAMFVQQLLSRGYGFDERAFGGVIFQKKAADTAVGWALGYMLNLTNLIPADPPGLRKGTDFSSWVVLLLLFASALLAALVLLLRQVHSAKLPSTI

[3] = Stability in human blood serum, Method B
P2Y1R = settings: cited from earlier work
[4] = 100 μM substrate, relative to pnp-TMP hydrolysis (100%)
[5] = 100 μM substrate, relative to ATP hydrolysis (100%)

Chain of turkey P2Y1 receptor (P49652 whole entry): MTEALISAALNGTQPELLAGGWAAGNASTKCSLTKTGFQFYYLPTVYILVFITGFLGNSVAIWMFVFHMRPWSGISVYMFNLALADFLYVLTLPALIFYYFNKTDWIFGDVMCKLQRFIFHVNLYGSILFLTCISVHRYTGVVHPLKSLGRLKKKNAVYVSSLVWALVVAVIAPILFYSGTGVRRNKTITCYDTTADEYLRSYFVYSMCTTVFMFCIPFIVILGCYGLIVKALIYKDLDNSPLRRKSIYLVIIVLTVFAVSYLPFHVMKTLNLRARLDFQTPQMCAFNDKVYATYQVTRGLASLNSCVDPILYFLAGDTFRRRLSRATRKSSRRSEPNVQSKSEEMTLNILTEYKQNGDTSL
Chain of human P2Y4 receptor (P51582 whole entry): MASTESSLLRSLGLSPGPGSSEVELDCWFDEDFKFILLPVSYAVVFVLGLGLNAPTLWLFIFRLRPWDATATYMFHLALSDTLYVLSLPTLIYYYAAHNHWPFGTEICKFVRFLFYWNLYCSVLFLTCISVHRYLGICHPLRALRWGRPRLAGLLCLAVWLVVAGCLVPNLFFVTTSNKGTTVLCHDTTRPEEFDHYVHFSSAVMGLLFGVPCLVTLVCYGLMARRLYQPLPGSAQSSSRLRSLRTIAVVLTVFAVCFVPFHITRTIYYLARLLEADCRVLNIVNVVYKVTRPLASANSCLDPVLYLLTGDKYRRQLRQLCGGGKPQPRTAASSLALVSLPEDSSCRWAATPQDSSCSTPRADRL
Chain of human P2Y2 receptor (P41231 whole entry): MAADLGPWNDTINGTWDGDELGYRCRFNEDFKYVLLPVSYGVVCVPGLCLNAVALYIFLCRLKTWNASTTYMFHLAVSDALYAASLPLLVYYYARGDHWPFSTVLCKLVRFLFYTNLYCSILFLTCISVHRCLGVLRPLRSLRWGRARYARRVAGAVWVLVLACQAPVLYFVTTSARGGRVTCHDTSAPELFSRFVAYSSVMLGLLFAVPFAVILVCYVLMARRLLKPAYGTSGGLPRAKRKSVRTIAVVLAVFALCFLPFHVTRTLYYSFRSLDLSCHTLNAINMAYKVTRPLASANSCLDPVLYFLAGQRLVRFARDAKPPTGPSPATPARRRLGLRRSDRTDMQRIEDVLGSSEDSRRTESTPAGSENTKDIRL
Chain of rat P2Y6 receptor (Q63371 whole entry): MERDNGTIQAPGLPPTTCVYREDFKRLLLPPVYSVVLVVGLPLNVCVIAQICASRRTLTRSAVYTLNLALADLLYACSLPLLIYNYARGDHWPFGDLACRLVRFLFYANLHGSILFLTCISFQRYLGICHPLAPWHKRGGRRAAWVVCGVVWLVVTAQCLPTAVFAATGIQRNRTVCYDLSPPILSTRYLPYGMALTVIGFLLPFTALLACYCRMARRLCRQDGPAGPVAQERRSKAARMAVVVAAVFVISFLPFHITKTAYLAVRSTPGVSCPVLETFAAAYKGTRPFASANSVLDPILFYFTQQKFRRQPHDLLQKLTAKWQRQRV

Molecule: Cc1cn([C@H]2C[C@H](O)[C@@H](COP(=O)(O)Oc3ccc([N+](=O)[O-])cc3)O2)c(=O)[nH]c1=O [pnp-TMP, p-nitrophenylthymidine-5′-monophosphate, reference compound]
- 100% activity of NPP3 with pnp-TMP as substrate (human NPP3; 100 μM pnp-TMP): 53 ± 4 nmol p-nitrophenol/min·mg protein
- Relative activity of NPP3 (human NPP3; [4]): 100%
- 100% activity of NPP1 with pnp-TMP as substrate (human NPP1; 100 μM pnp-TMP): 24 ± 2 nmol p-nitrophenol/min·mg protein
- Relative activity of NPP1 (human NPP1; [4]): 100%

Molecule: BP(=O)(OC[C@H]1O[C@@H](n2cnc3c(N)ncnc32)[C@H](O)[C@@H]1O)OP(=O)(O)CP(=O)(O)O (stereo partly drawn) [compound 3, Adenosine-5′-O-(α-boranotriphosphate)-β,γ-CH2]
- improvement of chemical stability as compared to 1 ([1]; pH 1.4, 37 °C): ca. 3 fold

Molecule: CSc1nc(N)c2ncn([C@@H]3O[C@H](COP(=O)(O)OP(=O)(O)OP(=O)(O)O)[C@@H](O)[C@H]3O)c2n1 [2-MeS–ATP]
- fraction ionized [2]: 91%

Molecule: [BH3-][P+](O)(OC[C@H]1O[C@@H](n2cnc3c(N)nc(SC)nc32)[C@H](O)[C@@H]1O)OP(=O)(O)CP(=O)(O)O (single isomer, unassigned) [4B, 2-MeS–adenosine-5′-O-(α-boranotriphosphate)-β,γ-CH2]
- agonist activity at P2Y1R (turkey P2Y1 receptor): potent P2Y1R agonists; also recorded: active isomer
- EC50 (turkey P2Y1 receptor; read-out: EC50 of analogue-induced increase in [Ca2+]i, P2Y1): 17.2 ± 5.3 µM
- Relative activity of NTPDase8 (human NTPDase8; [5]): 3.0 ± 07%
- EC50 (rat P2Y6 receptor): > 100 µM
- EC50 (human P2Y4 receptor): > 100 µM
- EC50 (human P2Y2 receptor): > 100 µM
- t1/2 of acidic hydrolysis ([1]; KCl/HCl buffer pH 1.4, 37 °C, 31P NMR (2) or HPLC-MS (3B, 4B)): 14.5 h
- Relative activity of NTPDase3 (human NTPDase3; [5]): 2.0 ± 1.0%
- Relative activity of NTPDase1 (human NTPDase1; [5]): <1%
- Relative activity of NTPDase2 (human NTPDase2): 1.0 ± 0.3%
- t1/2 in human blood serum ([3]; Method B, human blood serum and RPMI-1640, 37 °C): 71.9 h

Molecule: Nc1ncnc2c1ncn2[C@@H]1O[C@H](COP(=O)(O)OP(=O)(O)O)[C@@H](O)[C@H]1O [ADP]
- EC50 (P2Y1R; read-out: EC50 at P2Y1R, endogenous agonist ref 1): ~0.1 µM

Molecule: BP(=O)(OC[C@H]1O[C@@H](n2cnc3c(N)nc(SC)nc32)[C@H](O)[C@@H]1O)OP(=O)(O)CP(=O)(O)O (stereo partly drawn) [compound 4, 2-MeS–adenosine-5′-O-(α-boranotriphosphate)-β,γ-CH2]
- enhancement of the metabolic stability of ATP ([3]; human blood serum, half-life vs ATP): ≥ 20 fold

Molecule: 2-MeS–ATP-α-B [1A]
- potency of 1A isomer relative to 1B isomer at P2Y1R (P2Y1R): 20 fold

Molecule: Nc1ncnc2c1ncn2[C@@H]1O[C@H](COP(=O)(O)OP(=O)(O)OP(=O)(O)O)[C@@H](O)[C@H]1O [ATP, reference compound]
- ATPase activity (100%) of NTPDase8 (human NTPDase8; 100 μM ATP): 173 ± 18 nmol Pi/min·mg protein
- ATPase activity (100%) of NTPDase3 (human NTPDase3; 100 μM ATP): 493 ± 21 nmol Pi/min·mg protein
- ATPase activity (100%) of NTPDase1 (human NTPDase1; 100 μM ATP): 497 ± 38 nmol Pi/min·mg protein

Molecule: CSc1nc(N)c2ncn([C@@H]3O[C@H](COP(=O)(O)OP(=O)(O)O)[C@@H](O)[C@H]3O)c2n1 [2-MeS-ADP]
- fraction ionized [2]: 91%
